Experimental findings from US20110212137A1, “INHALABLE PHARMACEUTICAL COMPOSITION” (TEVA BRANDED PHARMACEUTICAL PRODUCTS R&D, INC., priority 2010, published 2011) are described below.

Molecules are shown by their SMILES.

The subject of this experiment is Asthma patients. The experiment in a line: Retrospective observational cohort study (UK General Practice Research Database): odds of successful asthma control after ICS increase. It is filed as in vivo. The following applies: compared with Qvar; as the primary proxy plus average daily prescribed salbutamol no more than 200 mcg and terbutaline 500 mcg; 12 month follow-up. An excerpt: Qvar® and other inhaled corticosteroids (ICS) CFC-beclometasone (BDP) and fluticasone propionate (FP) were compared in a large representative, UK clinical database.
Patients were eligible if they had data available for the twelve months prior to AND twelve months after the date of ICS increase. Multiple logistic regression, adjusted for baseline severity, provided odds of successful asthma control (no asthma hospital attendances, oral steroids, consultations or hospital admissions for lower respiratory tract infections requiring antibiotics) during 12 month follow-up. Poisson regression was used to compare asthma exacerbation rates (unscheduled hospital admissions/A&E attendances for asthma or use of oral steroids).
Study Design: A retrospective, observational, cohort study design was used, consisting of two time periods: a baseline period for confounder definition (minimum of one year before index prescription date) and an outcome period of one year post-index prescription date. The study design is shown in schematic format in FIG. 1.
Statistical Analysis: Descriptive statistics were used to compare baseline outcomes. Multiple logistic regression, adjusted for baseline severity and other potential confounders found at baseline, was used to determine the odds of successful asthma control. Poisson regression was used to compare exacerbation rates. […]

As to `CCC(=O)O[C@]1(C(=O)SCF)[C@H](C)C[C@H]2[C@@H]3C[C@H](F)C4=CC(=O)C=C[C@]4(C)[C@@]3(F)[C@@H](O)C[C@@]21C` [FP, fluticasone propionate], the “Adjusted odds ratio for successful asthma control, revised definition including SABA use” value is 0.90.
